Laboratory results: ChEMBL document CHEMBL1146439, “Novel mono-tetrahydrofuran ring acetogenins, from the bark of Annona squamosa, showing cytotoxic selectivities for the human pancreatic carcinoma cell line, PACA-2” (J Nat Prod, 1997)
≈ marks a conversion by molar mass, not a printed value.

Experiments:
[1] = Toxicity against brine shrimp; assay type: organism-based; conditions: artemia, in vivo
PC-3 = assay: Cytotoxicity against human PC3 cells after 7 days by MTT assay; assay type: functional; conditions: PC-3, 168 h, read-out: ED50 (the source's name)
MIA PaCa-2 = assay: Cytotoxicity against human MIAPaCa2 cells after 7 days by MTT assay; assay type: functional; conditions: for EC50: Homo sapiens, MIA PaCa-2, 168 h, read-out: ED50 (the source's name)
MCF7 = assay: Cytotoxicity against human MCF7 cells after 7 days by MTT assay; assay type: functional; conditions: MCF7, 168 h, read-out: ED50 (the source's name)
HT-29 = assay: Cytotoxicity against human HT-29 cells after 7 days by MTT assay; assay type: functional; conditions: HT-29, 168 h, read-out: ED50 (the source's name)
A549 = assay: Cytotoxicity against human A549 cells after 7 days by MTT assay; assay type: functional; conditions: A549, 168 h, read-out: ED50 (the source's name)
A498 = assay: Cytotoxicity against human A498 cells after 7 days by MTT assay; assay type: functional; conditions: A498, 168 h, read-out: ED50 (the source's name)

| Structure (SMILES) | LC50 [1] | EC50 (PC-3) | ED50 (MIA PaCa-2) | EC50 (MCF7) | EC50 (HT-29) | EC50 (A549) | EC50 (A498) | EC50 (MIA PaCa-2) |
| --- | --- | --- | --- | --- | --- | --- | --- | --- |
| CCCCCCCCCCCC[C@@H](O)[C@H]1CC[C@H]([C@H](O)CCCCCC(=O)CCCC[C@@H](O)CC2=C[C@H](C)OC2=O)O1 | 0.41 µg/mL (≈ 0.689 µM) | 0.0096 µg/mL (≈ 0.0161 µM) | 2.4 ×10⁻⁴ ug/ml | > 1 µg/mL | > 1 µg/mL | 0.27 µg/mL (≈ 0.454 µM) | > 1 µg/mL |  |
| CCCCCCCCC/C=C\CC[C@@H](O)[C@H]1CC[C@H]([C@H](O)CCCCCC(=O)CCCC[C@@H]2CC(CC(C)=O)C(=O)O2)O1 (mixture of isomers) | 0.44 µg/mL | 0.032 µg/mL |  | > 1 µg/mL | > 1 µg/mL | > 1 µg/mL | > 1 µg/mL | 0.0022 µg/mL |
| COc1cccc2c1C(=O)c1c(O)c3c(c(O)c1C2=O)C[C@@](O)(C(=O)CO)C[C@@H]3O[C@H]1C[C@H](N)[C@H](O)[C@H](C)O1 [DOXORUBICIN] | 0.26 µg/mL (≈ 0.478 µM) | 0.032 µg/mL (≈ 0.0589 µM) |  | 0.2 µg/mL (≈ 0.368 µM) | 0.02 µg/mL (≈ 0.0368 µM) | 0.0053 µg/mL (≈ 0.00975 µM) | 0.01 µg/mL (≈ 0.0184 µM) | 0.018 µg/mL (≈ 0.0331 µM) |
| CCCCCCCCCCCC[C@H](O)[C@H]1CC[C@H]([C@H](O)CCCCCC(=O)CCCC[C@@H](O)CC2=C[C@H](C)OC2=O)O1 [MOSIN B] | 0.29 µg/mL (≈ 0.487 µM) | 0.35 µg/mL (≈ 0.588 µM) | 2.5 ×10⁻⁴ ug/ml | > 1 µg/mL | > 1 µg/mL | 0.94 µg/mL (≈ 1.58 µM) | > 1 µg/mL |  |
| CCCCCCCCCCCC[C@H](O)[C@@H]1CC[C@H]([C@H](O)CCCCCC(=O)CCCC[C@@H](O)CC2=C[C@H](C)OC2=O)O1 [MOSIN C] | 0.15 µg/mL (≈ 0.252 µM) | > 1 µg/mL | 1.2 ×10⁻⁴ ug/ml | > 1 µg/mL | > 1 µg/mL | 0.6 µg/mL (≈ 1.01 µM) | > 1 µg/mL |  |
